Laboratory results published in patent US20260022142A1, “MACROCYCLIC IMMUNOMODULATORS” (Bristol-Myers Squibb Company, priority 2022, published 2026).
Bridge positions count the residues as written; N and C are the ends. Square brackets hold non-standard residues; d marks the D form. Peptide text beside a SMILES is read from it. * marks the point of attachment. ξ: configuration not given here. Bip = N[C@@H](Cc1ccc(-c2ccccc2)cc1)C(=O)O; Phe(3-Me) = Cc1cccc(C[C@H](N)C(=O)O)c1; NMeR = CN[C@@H](CCCNC(=N)N)C(=O)O; hArg = N=C(N)NCCCC[C@H](N)C(=O)O; Cha = N[C@@H](CC1CCCCC1)C(=O)O; Cit = NC(=O)NCCC[C@H](N)C(=O)O; Thr(3ξ) = CC(O)[C@H](N)C(=O)O; NMeNle = CCCC[C@H](NC)C(=O)O; Tle = CC(C)(C)[C@H](N)C(=O)O; 12Ado = NCCCCCCCCCCCC(=O)O; dOrn = NCCC[C@@H](N)C(=O)O; dDab = NCC[C@@H](N)C(=O)O; Carboxymethyl = O=C(O)C*; Orn = NCCC[C@H](N)C(=O)O; Aun = NCCCCCCCCCCC(=O)O; Dab = NCC[C@H](N)C(=O)O; Piv = CC(C)(C)C(=O)*

molecular target: T1, PD-1/PD-L1 interaction (PE-labeled human PD-L1-Ig binding to Jurkat cell line over-expressing human PD-1) (Homo sapiens, UniProt Q15116); assay: Jurkat-PD-1 Cell Binding High-Content Screening Assay (CBA); format: cell-based; settings: Jurkat cell line over-expressing human PD-1; PE-labeled PD-L1-Ig 20 nM final; read-out: Jurkat hPD1-PDL1 IC50
T1 construct: expressed in transfected cells; host or cells: Jurkat
Method in brief: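 Binding of fluorescent PD-L1-Ig (phycoerythrin on Ig tag, 20 nM final, 1 h) measured by high-content imaging of fixed, Hoechst-counterstained Jurkat-hPD-1 cells. Compound added 2 h at 37° C beforehand, in DMEM with 10% fetal calf serum.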

T1 sequence (Q15116 25-288): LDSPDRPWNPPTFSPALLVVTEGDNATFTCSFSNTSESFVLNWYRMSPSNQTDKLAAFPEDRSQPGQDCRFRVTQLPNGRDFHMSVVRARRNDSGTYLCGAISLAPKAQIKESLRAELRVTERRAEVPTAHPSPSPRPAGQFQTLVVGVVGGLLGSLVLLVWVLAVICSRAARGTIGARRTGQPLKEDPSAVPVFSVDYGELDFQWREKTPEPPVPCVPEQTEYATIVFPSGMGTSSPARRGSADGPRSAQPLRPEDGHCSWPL

| SMILES | IC50 |
| --- | --- |
| Cc1cccc(C[C@@H]2NC(=O)[C@H](CC(=O)O)NC(=O)[C@H](Cc3ccc(OCC(=O)O)cc3)NC(=O)[C@H](CCCNC(=N)N)NC(=O)CSC[C@@H](C(=O)N[C@@H](CCCCN)C(=O)N[C@@H](CO)C(=O)NCCCCCCCCCCCC(=O)O)NC(=O)[C@H](C(C)O)NC(=O)[C@H](C(C)C)NC(=O)[C@H](CC3CCCCC3)NC(=O)[C@H](CCN)NC(=O)[C@@H](CC(C)C)NC(=O)[C@H](CCCN)NC(=O)[C@H](CCCNC(N)=O)NC(=O)[C@H](Cc3ccc(-c4ccccc4)cc3)NC(=O)[C@H](C(C)C)NC2=O)c1 (stereo partly drawn) [Compound 3549] ({CH2CO}-RY(Carboxymethyl)D[Phe(3-Me)]V[Bip][Cit][Orn][dL][Dab][Cha]V[Thr(3ξ)]CKS[12Ado]-OH; thioether N-14) | 37 nM |
| Cc1cccc(C[C@@H]2NC(=O)[C@H](CC(=O)O)NC(=O)[C@H](Cc3ccc(OCC(=O)O)cc3)NC(=O)[C@H](CCCNC(=N)N)NC(=O)CSC[C@@H](C(=O)N[C@@H](CCCCN)C(=O)N[C@@H](CO)C(=O)NCCCCCCCCCCCC(=O)O)NC(=O)[C@H](C(C)O)NC(=O)[C@H](C(C)C)NC(=O)[C@H](CC3CCCCC3)NC(=O)[C@H](CCN)NC(=O)[C@@H](CC(C)C)NC(=O)[C@H](CCCN)NC(=O)[C@H](CCCNC(=N)N)NC(=O)[C@H](Cc3ccc(-c4ccccc4)cc3)NC(=O)[C@H](Cc3ccc(O)cc3)NC2=O)c1 (stereo partly drawn) [Compound 3550] ({CH2CO}-RY(Carboxymethyl)D[Phe(3-Me)]Y[Bip]R[Orn][dL][Dab][Cha]V[Thr(3ξ)]CKS[12Ado]-OH; thioether N-14) | 76.2 nM |
| Cc1cccc(C[C@@H]2NC(=O)[C@H](CC(=O)O)NC(=O)[C@H](Cc3ccc(OCC(=O)O)cc3)NC(=O)[C@H](CCCCNC(=N)N)NC(=O)CSC[C@@H](C(=O)N[C@@H](CCN)C(=O)NCCCCCCCCCCCC(=O)O)NC(=O)[C@H](C(C)O)NC(=O)[C@H](C(C)C)NC(=O)[C@H](CC3CCCCC3)NC(=O)[C@H](CCN)NC(=O)[C@@H](CC(C)C)NC(=O)[C@H](CCCN)NC(=O)[C@H](CCCNC(N)=O)NC(=O)[C@H](Cc3ccc(-c4ccccc4)cc3)NC(=O)[C@H](C(C)C)NC2=O)c1 (stereo partly drawn) [Compound 3551] ({CH2CO}-[hArg]Y(Carboxymethyl)D[Phe(3-Me)]V[Bip][Cit][Orn][dL][Dab][Cha]V[Thr(3ξ)]C[Dab][12Ado]-OH; thioether N-14) | 33.4 nM |
| Cc1cccc(C[C@@H]2NC(=O)[C@H](CC(=O)O)NC(=O)[C@H](Cc3ccc(OCC(=O)O)cc3)NC(=O)[C@H](CCCCNC(=N)N)NC(=O)CSC[C@@H](C(=O)N[C@H](CCC(=O)O)C(=O)NCCCCCCCCCCCC(=O)O)NC(=O)[C@H](C(C)O)NC(=O)[C@H](C(C)C)NC(=O)[C@H](CC3CCCCC3)NC(=O)[C@H](CCN)NC(=O)[C@@H](CC(C)C)NC(=O)[C@H](CCCN)NC(=O)[C@H](CCCNC(N)=O)NC(=O)[C@H](Cc3ccc(-c4ccccc4)cc3)NC(=O)[C@H](C(C)C)NC2=O)c1 (stereo partly drawn) [Compound 3552] ({CH2CO}-[hArg]Y(Carboxymethyl)D[Phe(3-Me)]V[Bip][Cit][Orn][dL][Dab][Cha]V[Thr(3ξ)]C[dE][12Ado]-OH; thioether N-14) | 20.5 nM |
| Cc1cccc(C[C@@H]2NC(=O)[C@H](CC(=O)O)NC(=O)[C@H](Cc3ccc(OCC(=O)O)cc3)NC(=O)[C@H](C(C)O)NC(=O)CSC[C@@H](C(=O)N[C@H](CCC(=O)O)C(=O)NCCCCCCCCCCCC(=O)O)NC(=O)[C@H](C(C)O)NC(=O)[C@H](C(C)C)NC(=O)[C@H](CC3CCCCC3)NC(=O)[C@H](CCN)NC(=O)[C@@H](CC(C)C)NC(=O)[C@H](CCCN)NC(=O)[C@H](CCCNC(N)=O)NC(=O)[C@H](Cc3ccc(-c4ccccc4)cc3)NC(=O)[C@H](C(C)C)NC2=O)c1 (stereo partly drawn) [Compound 3553] ({CH2CO}-[Thr(3ξ)]Y(Carboxymethyl)D[Phe(3-Me)]V[Bip][Cit][Orn][dL][Dab][Cha]V[Thr(3ξ)]C[dE][12Ado]-OH; thioether N-14) | 37.3 nM |
| Cc1cccc(C[C@@H]2NC(=O)[C@H](CC(=O)O)NC(=O)[C@H](Cc3ccc(OCC(=O)O)cc3)NC(=O)[C@H](C(C)O)NC(=O)CSC[C@@H](C(=O)N[C@@H](CCN)C(=O)NCCCCCCCCCCC(=O)O)NC(=O)[C@H](C(C)O)NC(=O)[C@H](C(C)C)NC(=O)[C@H](CC3CCCCC3)NC(=O)[C@H](CCN)NC(=O)[C@@H](CC(C)C)NC(=O)[C@H](CCCNC(=N)N)NC(=O)[C@H](CCCNC(N)=O)NC(=O)[C@H](Cc3ccc(-c4ccccc4)cc3)NC(=O)[C@H](C(C)C)NC2=O)c1 (stereo partly drawn) [Compound 3554] ({CH2CO}-[Thr(3ξ)]Y(Carboxymethyl)D[Phe(3-Me)]V[Bip][Cit]R[dL][Dab][Cha]V[Thr(3ξ)]C[Dab][Aun]-OH; thioether N-14) | 18.4 nM |
| CCCC[C@H]1C(=O)N[C@@H](Cc2ccc(OCC(=O)O)cc2)C(=O)N[C@@H](CC(=O)O)C(=O)N[C@@H](Cc2cccc(C)c2)C(=O)N[C@@H](C(C)C)C(=O)N[C@@H](Cc2ccc(-c3ccccc3)cc2)C(=O)N[C@@H](CCCNC(N)=O)C(=O)N[C@@H](CCCN)C(=O)N[C@H](CC(C)C)C(=O)N[C@@H](CCN)C(=O)N[C@@H](CC2CCCCC2)C(=O)N[C@@H](C(C)C)C(=O)N[C@@H](C(C)O)C(=O)N[C@H](C(=O)N[C@@H](CCN)C(=O)NCCCCCCCCCCC(=O)O)CSCC(=O)N1C (stereo partly drawn) [Compound 3555] ({CH2CO}-[NMeNle]Y(Carboxymethyl)D[Phe(3-Me)]V[Bip][Cit][Orn][dL][Dab][Cha]V[Thr(3ξ)]C[Dab][Aun]-OH; thioether N-14) | 42.8 nM |
| Cc1cccc(C[C@@H]2NC(=O)[C@H](CC(=O)O)NC(=O)[C@H](Cc3ccc(OCC(=O)O)cc3)NC(=O)[C@H](CCCNC(=N)N)NC(=O)CSC[C@@H](C(=O)N[C@@H](CCN)C(=O)NCCCCCCCCCCC(=O)O)NC(=O)[C@H](C(C)O)NC(=O)[C@H](C(C)C)NC(=O)[C@H](CC3CCCCC3)NC(=O)[C@H](CCN)NC(=O)[C@@H](CC(C)C)NC(=O)[C@H](CCCN)NC(=O)[C@H](CCCCNC(=O)C(C)(C)C)NC(=O)[C@H](Cc3ccc(-c4ccccc4)cc3)NC(=O)[C@H](Cc3ccc(O)cc3)NC2=O)c1 (stereo partly drawn) [Compound 3556] ({CH2CO}-RY(Carboxymethyl)D[Phe(3-Me)]Y[Bip]K(Piv)[Orn][dL][Dab][Cha]V[Thr(3ξ)]C[Dab][Aun]-OH; thioether N-14) | 13.2 nM |
| CC(=O)NCCCC[C@@H]1NC(=O)[C@H](Cc2ccc(-c3ccccc3)cc2)NC(=O)[C@H](C(C)C)NC(=O)[C@H](Cc2cccc(C)c2)NC(=O)[C@H](CC(=O)O)NC(=O)[C@H](Cc2ccc(OCC(=O)O)cc2)NC(=O)[C@H](CCCNC(=N)N)NC(=O)CSC[C@@H](C(=O)N[C@H](CCN)C(=O)NCCCCCCCCCCC(=O)O)NC(=O)[C@H](C(C)O)NC(=O)[C@H](C(C)C)NC(=O)[C@H](CC2CCCCC2)NC(=O)[C@H](CCN)NC(=O)[C@@H](CC(C)C)NC(=O)[C@H](CCCN)NC1=O (stereo partly drawn) [Compound 3558] ({CH2CO}-RY(Carboxymethyl)D[Phe(3-Me)]V[Bip]K(Ac)[Orn][dL][Dab][Cha]V[Thr(3ξ)]C[dDab][Aun]-OH; thioether N-14) | 29.8 nM |
| CC(=O)NCCCC[C@@H]1NC(=O)[C@H](Cc2ccc(-c3ccccc3)cc2)NC(=O)[C@H](C(C)C)NC(=O)[C@H](Cc2cccc(C)c2)NC(=O)[C@H](CC(=O)O)NC(=O)[C@H](Cc2ccc(OCC(=O)O)cc2)NC(=O)[C@H](CCCNC(=N)N)NC(=O)CSC[C@@H](C(=O)N[C@H](CCCN)C(=O)NCCCCCCCCCCC(=O)O)NC(=O)[C@H](C(C)O)NC(=O)[C@H](C(C)C)NC(=O)[C@H](CC2CCCCC2)NC(=O)[C@H](CCN)NC(=O)[C@@H](CC(C)C)NC(=O)[C@H](CCCN)NC1=O (stereo partly drawn) [Compound 3559] ({CH2CO}-RY(Carboxymethyl)D[Phe(3-Me)]V[Bip]K(Ac)[Orn][dL][Dab][Cha]V[Thr(3ξ)]C[dOrn][Aun]-OH; thioether N-14) | 14.1 nM |
| CC(=O)NCCCC[C@@H]1NC(=O)[C@H](Cc2ccc(-c3ccccc3)cc2)NC(=O)[C@H](C(C)C)NC(=O)[C@H](Cc2cccc(C)c2)NC(=O)[C@H](CC(=O)O)NC(=O)[C@H](Cc2ccc(OCC(=O)O)cc2)NC(=O)[C@H](CCCNC(=N)N)NC(=O)CSC[C@@H](C(=O)N[C@@H](CCN)C(=O)NCCCCCCCCCCC(=O)O)NC(=O)[C@H](C(C)O)NC(=O)[C@H](C(C)(C)C)NC(=O)[C@H](CC2CCCCC2)NC(=O)[C@H](CCN)NC(=O)[C@@H](CC(C)C)NC(=O)[C@H](CCCN)NC1=O (stereo partly drawn) [Compound 3560] ({CH2CO}-RY(Carboxymethyl)D[Phe(3-Me)]V[Bip]K(Ac)[Orn][dL][Dab][Cha][Tle][Thr(3ξ)]C[Dab][Aun]-OH; thioether N-14) | 17.9 nM |
| Cc1cccc(C[C@@H]2NC(=O)[C@H](CC(=O)O)NC(=O)[C@H](Cc3ccc(OCC(=O)O)cc3)NC(=O)[C@H](CCCNC(=N)N)NC(=O)CSC[C@@H](C(=O)N[C@H](CO)C(=O)NCCCCCCCCCCCC(=O)O)NC(=O)[C@H](C(C)O)NC(=O)[C@H](C(C)C)NC(=O)[C@H](CC3CCCCC3)NC(=O)[C@H](CCN)NC(=O)[C@@H](CC(C)C)NC(=O)[C@H](CCCN)NC(=O)[C@H](CCCNC(N)=O)NC(=O)[C@H](Cc3ccc(-c4ccccc4)cc3)NC(=O)[C@H](C(C)C)NC2=O)c1 (stereo partly drawn) [Compound 3561] ({CH2CO}-RY(Carboxymethyl)D[Phe(3-Me)]V[Bip][Cit][Orn][dL][Dab][Cha]V[Thr(3ξ)]C[dS][12Ado]-OH; thioether N-14) | 40.5 nM |
| Cc1cccc(C[C@@H]2NC(=O)[C@H](CC(=O)O)NC(=O)[C@H](Cc3ccc(OCC(=O)O)cc3)NC(=O)[C@H](CCCNC(=N)N)N(C)C(=O)CSC[C@@H](C(=O)N[C@@H](CCN)C(=O)NCCCCCCCCCCC(=O)O)NC(=O)[C@H](C(C)O)NC(=O)[C@H](C(C)C)NC(=O)[C@H](CC3CCCCC3)NC(=O)[C@H](CCN)NC(=O)[C@@H](CC(C)C)NC(=O)[C@H](CCCN)NC(=O)[C@H](CCCNC(N)=O)NC(=O)[C@H](Cc3ccc(-c4ccccc4)cc3)NC(=O)[C@H](C(C)C)NC2=O)c1 (stereo partly drawn) [Compound 3562] ({CH2CO}-[NMeR]Y(Carboxymethyl)D[Phe(3-Me)]V[Bip][Cit][Orn][dL][Dab][Cha]V[Thr(3ξ)]C[Dab][Aun]-OH; thioether N-14) | 28.4 nM |
